Measurements published in ChEMBL document CHEMBL1641589, “Phosphoramidate pronucleotides of cytostatic 6-aryl-7-deazapurine ribonucleosides” (Bioorg Med Chem, 2011).

Tests used:
[1] = Permeability from basolateral to apical side of human Caco2 cells at 10 uM after 60 to 120 mins by HPLC analysis; type: ADME, cell-based; details: Caco-2
CCRF-CEM [2] = assay: Cytotoxicity against human CCRF-CEM cells after 3 days by XTT assay; type: functional, cell-based; details: 72 h
[3] = Cytotoxicity against human HeLaS3 cells after 3 days by XTT assay; type: functional, cell-based; details: HeLa S3, 72 h
HCT-116 = assay: Cytotoxicity against human HCT116 cells after 5 days by SRB assay; type: functional; details: HCT-116, 120 h
HepG2 = assay: Cytotoxicity against human HepG2 cells after 3 days by XTT assay; type: functional, cell-based; details: HepG2, 72 h
[4] = Permeability from apical to basolateral side of human Caco2 cells at 10 uM after 60 to 120 mins by HPLC analysis; type: ADME, cell-based; details: Caco-2
CCRF-CEM [5] = assay: Cell cycle arrest in human CCRF-CEM cells assessed as increased of cellular debris level at IC50 concentration using propidium iodide staining by flow cytometry relative to control; type: functional
CCRF-CEM [6] = assay: Cell cycle arrest in human CCRF-CEM cells assessed as accumulation at S phase at IC50 concentration using propidium iodide staining by flow cytometry relative to control; type: functional
CCRF-CEM [7] = assay: Cell cycle arrest in human CCRF-CEM cells assessed as accumulation at G2/M phase at IC50 concentration using propidium iodide staining by flow cytometry relative to control; type: functional
[8] = Permeability from apical to basolateral side at 10 uM after 60 to 120 mins by HPLC analysis; type: ADME; details: not told
[9] = Efflux ratio of permeability from basolateral to apical side over apical to basolateral side in human Caco2 cells at 10 uM after 60 to 120 mins by HPLC analysis; type: ADME, cell-based; details: Caco-2
DU-145 = assay: Cytotoxicity against human DU145 cells after 5 days by SRB assay; type: functional; details: DU-145, 120 h
[10] = Cytotoxicity against human Hs578 cells after 5 days by SRB assay; type: functional; details: Hs578, 120 h
CCRF-CEM [11] = assay: Cell cycle arrest in human CCRF-CEM cells assessed as accumulation at G1 phase at IC50 concentration using propidium iodide staining by flow cytometry relative to control; type: functional
NCI-H23 = assay: Cytotoxicity against human NCI-H23 cells after 5 days by SRB assay; type: functional; details: NCI-H23, 120 h
HL-60 = assay: Cytotoxicity against human HL60 cells after 5 days by SRB assay; type: functional; details: HL-60, 120 h
[12] = Chemical stability of the compound assessed as specific activity per ug at 30 uM after 30 mins in presence of purified carboxylesterase 2; type: physicochemical; details: isolated protein, 0.5 h
[13] = Chemical stability of the compound assessed as specific activity per ug at 30 uM after 30 mins in presence of purified carboxylesterase 1; type: physicochemical; details: isolated protein, 0.5 h
[14] = Chemical stability of the compound assessed as specific activity per ug at 30 uM after 30 mins in presence of purified cathepsin A; type: physicochemical; details: 0.5 h

Row | Compound | Papp B→A at 10 µM [1] | IC50 (CCRF-CEM [2]) | IC50 [3] | GI50 (HCT-116) | IC50 (HepG2) | Papp A→B at 10 µM [4] | Activity (CCRF-CEM [5]) | Activity (CCRF-CEM [6]) | Activity (CCRF-CEM [7]) | Papp A→B at 10 µM [8] | efflux ratio at 10 µM [9] | GI50 (DU-145) | GI50 [10] | Activity (CCRF-CEM [11]) | GI50 (NCI-H23) | GI50 (HL-60) | Stability [12] | Stability [13] | Stability [14]
1 | C[C@H](NP(=O)(OC[C@H]1O[C@@H](n2ccc3c(-c4cccs4)ncnc32)[C@H](O)[C@@H]1O)Oc1ccccc1)C(=O)OCc1ccccc1 (stereo partly drawn) | 13.2 ×10⁻⁶ cm/s | 2.09 µM | 1.56 µM | 0.68 µM | 0.88 µM | 1.1 ×10⁻⁶ cm/s | 49.5% | 57.9% | 11.5% | 29.9 ×10⁻⁶ cm/s | 12 | 0.989 µM | 1.42 µM | 30.7% | 5.12 µM | – | – | – | –
2 | COC(=O)[C@H](C)NP(=O)(OC[C@H]1O[C@@H](n2ccc3c(-c4cccs4)ncnc32)[C@H](O)[C@@H]1O)Oc1ccccc1 (stereo partly drawn) | 9.75 ×10⁻⁶ cm/s | 8.47 µM | 2.51 µM | 6.22 µM | 1.41 µM | 0.74 ×10⁻⁶ cm/s | – | – | – | 35.1 ×10⁻⁶ cm/s | 13.3 | 3.23 µM | 6.59 µM | – | 6.79 µM | > 10 µM | – | – | –
3 | COC(=O)[C@H](C)NP(=O)(OC[C@H]1O[C@@H](n2ccc3c(-c4ccsc4)ncnc32)[C@H](O)[C@@H]1O)Oc1ccccc1 (stereo partly drawn) | – | > 10 µM | > 10 µM | > 10 µM | > 10 µM | – | – | – | – | – | – | > 10 µM | > 10 µM | – | > 10 µM | > 10 µM | 0 pmol/min | 167 pmol/min | 1496 pmol/min
4 | C[C@H](NP(=O)(OC[C@H]1O[C@@H](n2ccc3c(-c4ccoc4)ncnc32)[C@H](O)[C@@H]1O)Oc1ccccc1)C(=O)OCc1ccccc1 (stereo partly drawn) | – | 3.11 µM | 1.31 µM | 1.42 µM | 2.01 µM | – | 21.5% | 54% | 8.4% | – | – | 1.09 µM | 1.1 µM | 37.5% | 5.19 µM | > 10 µM | – | – | –
5 | OC[C@H]1O[C@@H](n2ccc3c(-c4ccccc4)ncnc32)[C@H](O)[C@@H]1O | – | 1 µM | 4.1 µM | 5.7 µM | > 10 µM | – | – | – | – | – | – | 0.075 µM | 3.1 µM | – | – | – | – | – | –
6 | OC[C@H]1O[C@@H](n2ccc3c(-c4cccc5c4oc4ccccc45)ncnc32)[C@H](O)[C@@H]1O | – | > 10 µM | > 10 µM | > 10 µM | > 10 µM | – | – | – | – | – | – | – | > 10 µM | – | – | > 10 µM | – | – | –
7 | OC[C@H]1O[C@@H](n2ccc3c(-c4cccs4)ncnc32)[C@H](O)[C@@H]1O | 9.31 ×10⁻⁶ cm/s | 8.8 µM | 0.29 µM | – | 1.19 µM | 1.57 ×10⁻⁶ cm/s | – | – | – | 34.1 ×10⁻⁶ cm/s | 5.9 | – | – | – | – | 1.2 µM | – | – | –
8 | CCOC(=O)[C@H](C)NP(=O)(OC[C@H]1O[C@@H](n2ccc3c(-c4ccsc4)ncnc32)[C@H](O)[C@@H]1O)Oc1ccccc1 (stereo partly drawn) | – | > 10 µM | > 10 µM | > 10 µM | > 10 µM | – | – | – | – | – | – | > 10 µM | > 10 µM | – | > 10 µM | > 10 µM | – | – | –
9 | OC[C@H]1O[C@@H](n2ccc3c(-c4ccoc4)ncnc32)[C@H](O)[C@@H]1O | – | – | – | – | 1.72 µM | – | – | – | – | – | – | – | – | – | – | 1.5 µM | – | – | –
10 | CCOC(=O)[C@H](C)NP(=O)(OC[C@H]1O[C@@H](n2ccc3c(-c4cccs4)ncnc32)[C@H](O)[C@@H]1O)Oc1ccccc1 (stereo partly drawn) | 9.62 ×10⁻⁶ cm/s | > 10 µM | 5.93 µM | > 10 µM | 1.53 µM | 0.76 ×10⁻⁶ cm/s | – | – | – | 33.8 ×10⁻⁶ cm/s | 12.7 | > 10 µM | 9.6 µM | – | 10.9 µM | > 10 µM | – | – | –
11 | C[C@H](NP(=O)(OC[C@H]1O[C@@H](n2ccc3c(-c4ccco4)ncnc32)[C@H](O)[C@@H]1O)Oc1ccccc1)C(=O)OCc1ccccc1 (stereo partly drawn) | – | 1.13 µM | 0.58 µM | 1.08 µM | 0.62 µM | – | 48.8% | 54.7% | 13.7% | – | – | 1.36 µM | 1.04 µM | 31.6% | 1.91 µM | 2.19 µM | 0 pmol/min | 133 pmol/min | 14727 pmol/min
12 | C[C@H](NP(=O)(OC[C@H]1O[C@@H](n2ccc3c(-c4cccc5c4oc4ccccc45)ncnc32)[C@H](O)[C@@H]1O)Oc1ccccc1)C(=O)OCc1ccccc1 (stereo partly drawn) | – | > 10 µM | > 10 µM | > 10 µM | > 10 µM | – | – | – | – | – | – | – | > 10 µM | – | – | > 10 µM | – | – | –
